Laboratory results: US7323447B2, “Hepatitis C virus inhibitors” (Bristol-Myers Squibb Company, priority 2005, dated 2008)
Like-named read-outs stand apart in the source and are kept apart here.

Tested on: HCV replicon in HUH-7 cells
Experiment: HCV replicon FRET assay
Assay type: cell-based, Hepatitis C virus (strain 1b)
Conditions: Hepatitis C virus
Summary of the method: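 HUH-7 cells carrying a genotype 1b subgenomic neo replicon (NS3–NS5B) treated 4 days at 37 °C with compound in 0.5% DMSO final. CC50 from alamarBlue fluorescence after 4 h; cells then lysed with FRET protease substrate at 10 μM final and read kinetically at 340/490 nm to give EC50.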

## C=C[C@@H]1C[C@]1(NC(=O)[C@@H]1C[C@@H](OC(=O)N2Cc3cccc(F)c3C2)CN1C(=O)[C@@H](OC(=O)NC(C)(C)C)C(C)(C)C)C(=O)NS(=O)(=O)C1CC1 [Example 56Compound 56]
Huh-7, 96 h, replicon FRET assay, HUH-7, 4 days, read-out: EC50 value in the replicon FRET assay
  EC50: 742 nM
Huh-7, read-out: EC50 Range, HCV replicon cell assay, Table 1
  EC50: 500 to 5000 nM
